Experimental data as given in the supplement of paper PMC13380429.

How the values were obtained:
Conditions in all cases: 72 h
[1] = test system: Calu-3; assay: cell viability relative to DMSO; higher = less toxic
[2] = test system: Vero E6; assay: as above
[3] = test system: Caco-2; assay: as above
[4] = test system: Calu-3; assay: drug sensitivity score (DSS) for viability; higher = more toxic; extreme values may be limits of the assay
[5] = test system: Vero E6; assay: as above
[6] = test system: Caco-2; assay: as above
[7] = test system: Calu-3; assay: relative viability EC50 (midpoint between 100% and the lowest measured viability); higher = less toxic
[8] = test system: Vero E6; assay: as above
[9] = test system: Caco-2; assay: as above
[10] = test system: U2OS; assay: cell viability relative to DMSO; higher = less toxic
[11] = test system: HepG2; assay: as above
[12] = test system: U2OS; assay: drug sensitivity score (DSS) for viability; higher = more toxic; extreme values may be limits of the assay
[13] = test system: HepG2; assay: as above
[14] = test system: U2OS; assay: relative viability EC50 (midpoint between 100% and the lowest measured viability); higher = less toxic
[15] = test system: HepG2; assay: as above

SMILES	cell viability ([1]; 1 nM)	cell viability ([1]; 10 nM)	cell viability ([1]; 100 nM)	cell viability ([1]; 1000 nM)	cell viability ([1]; 10000 nM)	cell viability ([2]; 1 nM)	cell viability ([2]; 10 nM)	cell viability ([2]; 100 nM)	cell viability ([2]; 1000 nM)	cell viability ([2]; 10000 nM)	cell viability ([3]; 1 nM)	cell viability ([3]; 10 nM)	cell viability ([3]; 100 nM)	cell viability ([3]; 1000 nM)	cell viability ([3]; 10000 nM)	drug sensitivity score [4]	drug sensitivity score [5]	drug sensitivity score [6]	relative viability EC50 [7]	relative viability EC50 [8]	relative viability EC50 [9]	cell viability ([10]; 1 nM)	cell viability ([10]; 10 nM)	cell viability ([10]; 100 nM)	cell viability ([10]; 1000 nM)	cell viability ([10]; 10000 nM)	cell viability ([11]; 1 nM)	cell viability ([11]; 10 nM)	cell viability ([11]; 100 nM)	cell viability ([11]; 1000 nM)	cell viability ([11]; 10000 nM)	drug sensitivity score [12]	drug sensitivity score [13]	relative viability EC50 [14]	relative viability EC50 [15]
CC(=O)SC[C@@H](C)C(=O)N1CCC[C@H]1C(=O)N[C@@H](Cc1ccccc1)C(=O)O [alacepril]	106%	108%	96.9%	103%	99.4%	98.3%	101%	93%	98.8%	99.4%	102%	101%	94.7%	108%	104%	0	0	0	> 10 µM	> 10 µM	> 10 µM														
CCC1(c2ccc(N)cc2)CCC(=O)NC1=O (centres undefined) [aminoglutethimide]	112%	95.6%	103%	93.2%	102%	97.6%	101%	91.3%	86.9%	100%	109%	97.2%	105%	112%	111%	0	0	0	> 10 µM	> 10 µM	> 10 µM	102%	105%	105%	101%	98.6%	90.7%	96%	85.3%	77.2%	71.8%	0	4.8	> 10 µM	
COc1ccc(-c2cc(=S)ss2)cc1 [anethole-trithione]	97.1%	95.9%	111%	108%	97.3%	107%	105%	95.9%	102%	106%	99.3%	96.5%	100%	91.9%	92.2%	0	0	0	> 10 µM	> 10 µM	> 10 µM	100%	98.9%	99.8%	97.6%	103%						0		> 10 µM	
CN/C(=N\CCSCc1nc[nH]c1C)NC#N [cimetidine]	104%	106%	102%	101%	88.6%	94.5%	91.7%	96.9%	91.3%	90%	99.8%	98.7%	98.7%	106%	88.1%	0	0	0	> 10 µM	> 10 µM	> 10 µM	101%	106%	100%	104%	96.4%						0		> 10 µM	
C[C@]12CCC(=O)C=C1CC[C@@H]1[C@@H]2CC[C@@]2(C)[C@H]1CC[C@]2(O)C(=O)CO [cortodoxone]	106%	91%	95.2%	97.8%	104%	108%	108%	105%	97.6%	96.8%	89.6%	95.5%	100%	86.5%	103%	0	0	0	> 10 µM	> 10 µM	> 10 µM	92.9%	95.2%	96.6%	99.6%	98.7%						0		> 10 µM	
CN(C)/N=N/c1[nH]cnc1C(N)=O [dacarbazine]	91.9%	102%	95.9%	110%	95.7%	98.6%	94.2%	94.4%	97.2%	100%	100%	97.8%	97%	103%	93.4%	0	0	0	> 10 µM	> 10 µM	> 10 µM	97.7%	99.2%	94.9%	102%	92.7%	106%	90.7%	99.2%	90.5%	72.7%	0	2.3	> 10 µM	
Cc1cc(C)c(Nc2ccnc(Nc3ccc(C#N)cc3)n2)c(C)c1 [dapivirine]	108%	100%	97.1%	100%	74.4%	93.7%	101%	92.9%	94.7%	61.5%	104%	94.5%	99.3%	86%	47.8%	1	2.8	4.9			1.49 µM	97.7%	100%	101%	99%	40.3%	107%	120%	95.4%	103%	17.3%	3.4	4.3	3.05 µM	3.38 µM
Oc1ccc([C@@H]2Oc3ccc(O)cc3[C@@H]3CCC[C@@H]32)cc1 [erteberel]	108%	109%	108%	98.3%	102%	94.8%	99%	92.5%	99.4%	87.8%	95.4%	94.4%	96.7%	92.8%	86.8%	0	0	0	> 10 µM	> 10 µM	> 10 µM	97.5%	95.6%	102%	98.9%	82.9%	102%	101%	97.6%	108%	52.4%	0.5	2	> 10 µM	
Nc1nc(=O)n([C@H]2C[C@H](O)[C@@H](CO)O2)cc1F [fdcyd]	85.1%	108%	84.1%	85.5%	68.3%	99.3%	105%	90.7%	66.4%	54.9%	93.4%	106%	94.9%	113%	86.1%	3.4	7	0.1			> 10 µM	102%	106%	95.8%	104%	86.2%	117%	89.8%	60.1%	55.2%	49.8%	0.1	14.8	> 10 µM	0.0346 µM
COC(=O)[C@H](CC(C)C)NC(=O)[C@@H](N)CC(C)C [leucylleucine-methyl-ester]	98.1%	107%	86.9%	99.6%	98.5%						98.1%	102%	94.5%	104%	103%	0		0	> 10 µM		> 10 µM														
COc1ccc(C(=O)c2ccccc2)c(O)c1 [oxybenzone]											99.6%	94.4%	98.9%	101%	97.8%			0			> 10 µM	103%	103%	101%	98.2%	100%	112%	112%	98.9%	114%	103%	0	0	> 10 µM	> 10 µM
CCCC(C)C1(CC)C(=O)NC(=O)NC1=O (centres undefined) [pentobarbital]	106%	90.3%	109%	107%	94.1%	102%	94.4%	96.5%	106%	100%	94.8%	90.8%	88.3%	89.1%	93.9%	0	0	0.8	> 10 µM	> 10 µM	> 10 µM	104%	97.1%	99.7%	93.9%	99.1%						0		> 10 µM	
C[C@]12CC[C@H](O)C[C@H]1CC[C@@H]1[C@@H]2CC[C@]2(C)[C@@H](c3ccc(=O)oc3)C[C@H]3O[C@]132 [resibufogenin]	102%	94.8%	106%	99.4%	45.7%	106%	101%	102%	11.3%	2.1%	96.3%	98.8%	106%	94.7%	25.1%	3	16	4.9	3.09 µM	0.426 µM	2.59 µM	97%	104%	98.9%	101%	6.5%	115%	100%	109%	90.5%	63.6%	5.1	3.2	3.23 µM	
C=C[C@]1(C)C[C@@H](OC(=O)CS[C@@H]2C[C@H]3CC[C@@H](C2)N3C)[C@]2(C)[C@H](C)CC[C@]3(CCC(=O)[C@H]32)[C@@H](C)[C@@H]1O [retapamulin]	107%	98.5%	104%	98.2%	97.8%	94.9%	101%	90.4%	93.9%	91.5%	94.7%	98.2%	112%	92.8%	98.8%	0	0	0	> 10 µM	> 10 µM	> 10 µM	103%	98.4%	102%	101%	99.1%	96.9%	101%	89.4%	85.9%	74%	0	2.6	> 10 µM	
C#CCN(C)[C@H](C)Cc1ccccc1 [selegiline]																0	0															0	0		
O=C(NN1C(=O)[C@@H]2[C@@H]3C=C[C@@H]([C@H]4C[C@@H]34)[C@@H]2C1=O)c1ccc(C(F)(F)F)cc1 [tecovirimat]	99.7%	90.3%	103%	98.8%	100%	98.5%	104%	93%	95.3%	101%	109%	104%	105%	101%	94.2%	0	0	0	> 10 µM	> 10 µM	> 10 µM	107%	107%	107%	99.6%	104%						0		> 10 µM	
Cc1ccc(S(=O)(=O)NC(=O)NN2CCCCCC2)cc1 [tolazamide]	92.2%	96.2%	88%	79.5%	93.3%	98.9%	86.3%	95.5%	98.3%	107%	95.6%	95%	102%	93.8%	89.7%	0	0	0	> 10 µM	> 10 µM	> 10 µM	100%	97%	97%	99.2%	103%						0		> 10 µM	
